# Test results as given in patent US20260048060A1, “POLYCYCLIC THYROID HORMONE b RECEPTOR AGONIST AND USE THEREOF” (CASCADE PHARMACEUTICALS, INC., priority 2022, published 2026).
# Tests used:
# [1] = molecular target: T1, THRβ (Homo sapiens, UniProt P10828); assay: Time-resolved FRET (THR-FRET) agonist activity assay, GST-tagged THRβ LBD with SRC2 polypeptide; type: biochemical; details: ratio of THR-FRET EC50 values THRα/THRβ
# T1 construct: made in house; host or cells: E. coli BL21 (DE3)
# T1 sequence (P10828 217-461 limits assumed): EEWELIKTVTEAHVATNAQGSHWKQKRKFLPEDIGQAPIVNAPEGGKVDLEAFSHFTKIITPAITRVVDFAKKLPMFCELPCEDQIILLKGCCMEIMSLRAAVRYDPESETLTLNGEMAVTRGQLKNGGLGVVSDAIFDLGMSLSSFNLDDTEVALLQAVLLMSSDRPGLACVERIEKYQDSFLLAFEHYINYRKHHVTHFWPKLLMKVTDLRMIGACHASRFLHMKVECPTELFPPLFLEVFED
# Description: Experimental Example 2: Detection of Agonist Activities of Compounds Against THRα/β Based on Time-Resolved Fluorescence Resonance Energy Transfer (THR-FRET)
# By visiting NCBI, the THRα/β LBD domain sequences were found. The pET21-His-GST-dLBT-THRα LBD and pET21-His-GST-dLBT-THRβ LBD overexpression vectors were constructed by the fusion method, and sequenced to confirm the accuracy of the sequences.
# The correctly sequenced THRα LBD and THRβ LBD overexpression vectors were transfected into E. coli cells BL21 (DE3), and spread on an agar plate with ampicillin. Monoclones were picked out and amplified in an LB medium, and transferred into 1 L LB at a ratio of 1:100 for large-scale culture. When the OD value was at 0.8 to 1.2, 0.5 mM isopropyl-beta-D-thiogalactopyranoside (IPTG) was added, and induced overnight at 18° C. The bacteria were harvested, disrupted, and purified via the GST column and the molecular sieve to obtain two proteins His-GST-dLBT-THRα LBD and His-GST-dLBT-THRβ LBD.
# The proteins were taken out from a refrigerator at −80° C. The proteins with the GST-tagged THRα/β LBD domain and the Eu-labelled GST antibodies were thawed slowly on ice, and an assay buffer containing a final concentration of 5 mM dithiothreitol (DTT) was formulated.
# The starting concentration of the compound was 100 μM (in DMSO). The compound (100 μM in DMSO) was subjected to 3-fold isogradient dilution with DMSO to obtain a total of 11 isogradient concentrations. Subsequently, the above compounds at the isogradient concentration were further subjected to 50-fold dilution with an assay buffer containing 5 mM DTT.
# The final concentrations of all components were calculated based on a system with a final volume of 20 μL per well. To 18 μL of assay buffer containing 5 mM DTT, the GST-tagged THRα/β proteins, the SRC2 ([…]) polypeptide, XL665 (Cisobio, #610SAXLB), and the Eu-labeled GST antibody were added, and the final concentrations were 2 nM, 200 nM, 0.05 nM, and 7.6 nM respectively to formulate 18 μL of reaction mixture of the proteins, polypeptide, and antibody per well.
# 18 μL of reaction mixture and 2 μL of diluted compound were added into an optiplate-384-well plate, and reacted at room temperature for 24 h.
# The plate was read using an MD i3X multi-mode microplate reader with the excitation and emission wavelengths of 340 nm and 665 nm, respectively. The intensity of light at a wavelength of 616 nm generated by europium excited by 340 nm wavelength light from the MD i3X multi-mode microplate reader was used as the background. According to the different activation degrees of different compounds against THRα and THRβ, the intensity of the emission light at a wavelength of 665 nm generated by exciting XL665 with the exciting light at a wavelength of 616 nm was varied. The intensity ratio between these two light wavelengths (665 nm, 616 nm) was used as the activation activity of the compound against THRα or THRβ, and the ratio in the solvent DMSO group was used for normalization. The dose-response curve was fitted with four parameters using the GraphPad Prism 6.0 software, and the EC50 value was calculated.
# [2] = molecular target: T2, THRβ (Homo sapiens, UniProt P10828); assay: Reporter gene (GAL4-THRβ-LBD / Dual-Glo luciferase) agonist activity assay in HEK293T cells; type: cell-based; details: ratio of reporter gene EC50 values THRα/THRβ
# T2 construct: expressed in transfected cells; host or cells: HEK293T
# T2 sequence (P10828 217-461): T1 sequence (P10828 217-461 limits assumed)
# Description: Experimental Example 1: Detection of THRα and THRβ Agonist Activities of Compounds Based on Reporter Gene Activity Assay Method
# 1.1 Construction and Preparation of Plasmids pGAL4-THR-LBD and pG5-Luc
# The pGAL4-THRα-LBD and pGAL4-THRβ-LBD plasmids used in the reporter gene assay system were constructed by a conventional molecular cloning method comprising the following main steps: the cDNA sequences of THRα (NM_003250) and THRβ (NM_000461) corresponding to the amino acid sequences of THRα (163-407AA) and THRβ (217-461AA) were inserted into the BamHI and NotI enzyme digestion sites of the pGAL4 vector by the PCR technique respectively to obtain the pGAL4-THRα-LBD and pGAL4-THRβ-LBD plasmids; the pG5-Luc (#E249A) and pRL-TK (#E2241) plasmids were purchased from Promega; the plasmids were transfected into the E. coli DH5α by the CaCl2 method, and after further culture and amplification, the plasmids were purified by Plasmid Extraction Kits (TIANGEN, #D107) to obtain the corresponding plasmid DNAs.
# 1.2 Co-Transfection of Plasmids into HEK293T Cells and Treatment with Compounds
# The HEK293T cells were inoculated into a 96-well plate at a density of 1×10^4/well the day before plasmid transfection. Cell transfection was conducted according to the instructions of the transfection reagent FuGENE® HD (Promega, #E2311). The main steps were as follows: taking one well as an example here, the plasmids pGAL4-THRα-LBD or pGAL4-THRβ-LBD, pG5-Luc, and pRL-TK were added in the proportions of 20 ng, 50 ng, and 5 ng to 10 μL of Opti-MEM™ I medium (Gibco, #11058021) and mixed well; subsequently, 0.25 uL of FuGENE® HD was added, mixed well, and then left at room temperature for 5 min; afterwards, 10 μL of the mixture was added to the cell wells containing 100 μL of culture medium. After cell co-transfection for 6 h, the compound was diluted in a 3-fold gradient with dimethyl sulfoxide at the highest concentration of 1 uM. The compound was added to the cell culture medium at a total of 10 concentrations for treatment for 24 h. There were a total of two duplicate wells for each concentration. Triiodothyronine (T3) was used as the positive control.
# 1.3 Dual-Glo Luciferase Assay
# After the cells were treated with the compound for 24 h, the cells were assayed according to the instructions of Dual-Glo® Luciferase Assay System (Promega, #E2940). The main steps were as follows: 50 μL of culture medium was aspirated from each well and discarded, and then 50 μL of Dual-Glo® Luciferase reagent was added and oscillated at room temperature for 10 min; 80 μL of lysis reaction solution was measured into a white opaque optiPlate-96-well plate, and the luminescence signal value (Firefly-Luc) of the Firefly luciferase was detected using an MD i3x multi-mode microplate reader; 40 μL of Dual-Glo® Stop & Glo® reagent was then added, and oscillated at room temperature for 10 min; the luminescence signal value (Renilla-Luc) of the Renilla luciferase was then detected using an MD i3x multi-mode microplate reader. The Firefly-Luc/Renilla-Luc ratio was used as the activation activity of the compound against THR, and the ratio in the solvent DMSO group was used for normalization; the dose-response curve was fitted with four parameters using the GraphPad Prism6.0 software, and the EC50 value was calculated.
Compound,Selectivity (THRα/THRβ) [1],Selectivity (THRα/THRβ) [2]
CNC(=O)c1ccccc1SCc1c(Br)cc(-n2nc(C#N)c(=O)[nH]c2=O)cc1Br [Compound 13],†† (††: 10 ≥ THRα/β;),
O=C(O)c1ccccc1SCc1c(Cl)cc(-n2ncc(=O)[nH]c2=O)cc1Cl [Compound 18],††† (†††: 20 ≥ THRα/β > 10;),
NC(=O)c1ccccc1SCc1c(Cl)cc(-n2ncc(=O)[nH]c2=O)cc1Cl [Compound 19],††† (†††: 20 ≥ THRα/β > 10;),
CNC(=O)c1ccccc1SCc1c(Cl)cc(-n2ncc(=O)[nH]c2=O)cc1Cl [Compound 20],††† (†††: 20 ≥ THRα/β > 10;),
CC(C)NC(=O)c1ccccc1SCc1c(Cl)cc(-n2ncc(=O)[nH]c2=O)cc1Cl [Compound 22],††† (†††: 20 ≥ THRα/β > 10;),
CCNC(=O)c1ccccc1SCc1c(Cl)cc(-n2ncc(=O)[nH]c2=O)cc1Cl [Compound 24],†† (††: 10 ≥ THRα/β;),
CNC(=O)c1ccccc1SCc1c(Br)cc(-n2ncc(=O)[nH]c2=O)cc1Br [Compound 25],††† (†††: 20 ≥ THRα/β > 10;),† (†: 5 ≥ THRα/β;)
O=C(O)c1ccccc1NCc1c(Cl)cc(-n2ncc(=O)[nH]c2=O)cc1Cl [Compound 26],††† (†††: 20 ≥ THRα/β > 10;),
Cc1ccc(C(N)=O)c(OCc2c(Cl)cc(-n3ncc(=O)[nH]c3=O)cc2Cl)c1 [Compound 33],††† (†††: 20 ≥ THRα/β > 10;),
NC(=O)c1ccccc1OCc1c(Br)cc(-n2ncc(=O)[nH]c2=O)cc1Br [Compound 38],†† (††: 10 ≥ THRα/β;),†† (††: 10 ≥ THRα/β > 5;)
NC(=O)c1sccc1OCc1c(Cl)cc(-n2ncc(=O)[nH]c2=O)cc1Cl [Compound 45],†† (††: 10 ≥ THRα/β;),† (†: 5 ≥ THRα/β;)
CNC(=O)c1ccccc1SCc1c(Cl)cc(-n2nc(C(F)F)c(=O)[nH]c2=O)cc1Cl [Compound 55],†† (††: 10 ≥ THRα/β;),
COc1ccc(OCc2c(Cl)cc(-n3ncc(=O)[nH]c3=O)cc2Cl)c(C(N)=O)c1 [Compound 69],††† (†††: 20 ≥ THRα/β > 10;),† (†: 5 ≥ THRα/β;)
"CNC(=O)c1ccccc1Oc1c(Cl)cc(-n2ncc(=O)[nH]c2=O)cc1Cl [Compound 114, reference compound]",†† (††: 10 ≥ THRα/β;),

# Continued, values first:
Selectivity (THRα/THRβ) [1],Selectivity (THRα/THRβ) [2],Compound
†† (††: 10 ≥ THRα/β;),,N#Cc1nn(-c2cc(Cl)c(COc3ccccc3C(N)=O)c(Cl)c2)c(=O)[nH]c1=O [Compound 1]
†† (††: 10 ≥ THRα/β;),,CNC(=O)c1ccccc1OCc1c(Cl)cc(-n2nc(C#N)c(=O)[nH]c2=O)cc1Cl [Compound 2]
††† (†††: 20 ≥ THRα/β > 10;),,N#Cc1nn(-c2cc(Cl)c(CSc3ccccc3C(=O)O)c(Cl)c2)c(=O)[nH]c1=O [Compound 6]
††† (†††: 20 ≥ THRα/β > 10;),,CNC(=O)c1ccccc1SCc1c(Cl)cc(-n2nc(C#N)c(=O)[nH]c2=O)cc1Cl [Compound 7]
†† (††: 10 ≥ THRα/β;),,CNC(=O)c1ccccc1NCc1c(Cl)cc(-n2nc(C#N)c(=O)[nH]c2=O)cc1Cl [Compound 9]
††† (†††: 20 ≥ THRα/β > 10;),,N#Cc1nn(-c2cc(Cl)c(CNc3ccccc3C(=O)O)c(Cl)c2)c(=O)[nH]c1=O [Compound 10]
†† (††: 10 ≥ THRα/β;),,N#Cc1nn(-c2cc(Br)c(COc3ccccc3C(N)=O)c(Br)c2)c(=O)[nH]c1=O [Compound 11]
†† (††: 10 ≥ THRα/β;),,CNC(=O)c1ccccc1OCc1c(Br)cc(-n2nc(C#N)c(=O)[nH]c2=O)cc1Br [Compound 12]
†† (††: 10 ≥ THRα/β;),† (†: 5 ≥ THRα/β;),NC(=O)c1ccccc1OCc1c(Cl)cc(-n2ncc(=O)[nH]c2=O)cc1Cl [Compound 14]
†† (††: 10 ≥ THRα/β;),† (†: 5 ≥ THRα/β;),CNC(=O)c1ccccc1OCc1c(Cl)cc(-n2ncc(=O)[nH]c2=O)cc1Cl [Compound 17]
††† (†††: 20 ≥ THRα/β > 10;),† (†: 5 ≥ THRα/β;),CNC(=O)c1ccccc1SCc1c(Cl)cc(-n2nc(N)c(=O)[nH]c2=O)cc1Cl [Compound 29]
†† (††: 10 ≥ THRα/β;),,O=C(NO)c1ccccc1OCc1c(Cl)cc(-n2ncc(=O)[nH]c2=O)cc1Cl [Compound 42]
†† (††: 10 ≥ THRα/β;),† (†: 5 ≥ THRα/β;),CNC(=O)c1ccccc1OCc1c(Cl)cc(-n2nc(C(F)F)c(=O)[nH]c2=O)cc1Cl [Compound 53]
†† (††: 10 ≥ THRα/β;),† (†: 5 ≥ THRα/β;),NC(=O)c1ccccc1OCc1c(Cl)cc(-n2nc(C(F)F)c(=O)[nH]c2=O)cc1Cl [Compound 54]
